What was measured:
[1] = target: T1, Adrenergic receptor alpha-2 (Rattus norvegicus, UniProt P22086+P19328+P22909); assay: Ability to inhibit [3H]yohimbine binding to alpha-2 adrenergic receptor of rat cerebral cortex preparation; format: tissue-based
T1 sequence (P22086 whole entry): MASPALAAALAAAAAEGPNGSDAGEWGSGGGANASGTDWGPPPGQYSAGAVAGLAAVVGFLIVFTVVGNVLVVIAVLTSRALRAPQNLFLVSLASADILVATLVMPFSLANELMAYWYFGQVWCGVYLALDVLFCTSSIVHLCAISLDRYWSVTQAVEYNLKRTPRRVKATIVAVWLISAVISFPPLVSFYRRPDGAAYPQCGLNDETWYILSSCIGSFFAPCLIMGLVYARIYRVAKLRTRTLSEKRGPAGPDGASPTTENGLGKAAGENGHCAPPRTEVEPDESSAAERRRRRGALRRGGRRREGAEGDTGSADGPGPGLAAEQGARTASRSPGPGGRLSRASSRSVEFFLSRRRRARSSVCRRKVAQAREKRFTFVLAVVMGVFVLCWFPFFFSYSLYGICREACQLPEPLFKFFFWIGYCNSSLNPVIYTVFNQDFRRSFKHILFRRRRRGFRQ
T1 sequence (P19328 whole entry): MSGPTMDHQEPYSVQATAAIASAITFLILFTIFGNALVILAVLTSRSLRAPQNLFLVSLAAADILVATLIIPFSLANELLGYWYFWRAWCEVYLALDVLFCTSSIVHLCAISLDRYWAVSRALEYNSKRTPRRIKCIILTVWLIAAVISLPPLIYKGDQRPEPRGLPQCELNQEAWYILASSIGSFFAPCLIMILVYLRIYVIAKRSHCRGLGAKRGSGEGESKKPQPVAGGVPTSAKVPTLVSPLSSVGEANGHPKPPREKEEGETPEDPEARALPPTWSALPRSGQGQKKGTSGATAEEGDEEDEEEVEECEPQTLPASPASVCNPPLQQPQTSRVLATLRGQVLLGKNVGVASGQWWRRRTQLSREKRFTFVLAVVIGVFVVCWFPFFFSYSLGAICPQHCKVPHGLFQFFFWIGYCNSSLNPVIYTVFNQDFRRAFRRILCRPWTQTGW
T1 sequence (P22909 whole entry): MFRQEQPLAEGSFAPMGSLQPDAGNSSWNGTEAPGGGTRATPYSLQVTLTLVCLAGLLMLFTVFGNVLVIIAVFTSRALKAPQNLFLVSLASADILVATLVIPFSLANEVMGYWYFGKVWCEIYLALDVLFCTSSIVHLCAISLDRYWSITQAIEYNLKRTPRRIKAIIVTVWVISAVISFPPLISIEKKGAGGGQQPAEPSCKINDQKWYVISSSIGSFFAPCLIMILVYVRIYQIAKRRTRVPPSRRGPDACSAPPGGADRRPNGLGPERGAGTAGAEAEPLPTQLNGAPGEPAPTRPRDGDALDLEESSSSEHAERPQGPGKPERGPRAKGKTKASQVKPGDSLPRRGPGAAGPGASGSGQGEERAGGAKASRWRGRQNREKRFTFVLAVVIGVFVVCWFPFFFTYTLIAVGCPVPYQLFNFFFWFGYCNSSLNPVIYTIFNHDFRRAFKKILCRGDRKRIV

[2] = target: T2, Adrenergic receptor alpha-1 (Rattus norvegicus, UniProt P15823+P23944+P43140); assay: Alpha-1-adrenolytic activity was assessed from the ability to inhibit [3H]prazosin binding to rat cerebral cortex preparation; format: tissue-based
T2 sequence (P15823 whole entry): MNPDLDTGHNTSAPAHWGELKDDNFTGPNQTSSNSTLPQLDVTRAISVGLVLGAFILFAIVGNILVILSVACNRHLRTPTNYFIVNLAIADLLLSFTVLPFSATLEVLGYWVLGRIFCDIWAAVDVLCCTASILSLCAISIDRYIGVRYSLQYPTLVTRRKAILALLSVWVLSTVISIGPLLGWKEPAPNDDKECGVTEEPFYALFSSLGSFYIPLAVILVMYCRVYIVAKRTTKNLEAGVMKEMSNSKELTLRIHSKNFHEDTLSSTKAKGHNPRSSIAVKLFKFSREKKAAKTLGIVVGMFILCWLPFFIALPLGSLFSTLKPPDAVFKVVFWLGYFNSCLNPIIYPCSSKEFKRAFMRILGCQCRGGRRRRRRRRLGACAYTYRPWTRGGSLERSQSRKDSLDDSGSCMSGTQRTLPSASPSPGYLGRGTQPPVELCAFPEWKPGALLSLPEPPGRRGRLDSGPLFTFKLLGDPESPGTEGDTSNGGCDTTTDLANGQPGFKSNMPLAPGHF
T2 sequence (P23944 whole entry): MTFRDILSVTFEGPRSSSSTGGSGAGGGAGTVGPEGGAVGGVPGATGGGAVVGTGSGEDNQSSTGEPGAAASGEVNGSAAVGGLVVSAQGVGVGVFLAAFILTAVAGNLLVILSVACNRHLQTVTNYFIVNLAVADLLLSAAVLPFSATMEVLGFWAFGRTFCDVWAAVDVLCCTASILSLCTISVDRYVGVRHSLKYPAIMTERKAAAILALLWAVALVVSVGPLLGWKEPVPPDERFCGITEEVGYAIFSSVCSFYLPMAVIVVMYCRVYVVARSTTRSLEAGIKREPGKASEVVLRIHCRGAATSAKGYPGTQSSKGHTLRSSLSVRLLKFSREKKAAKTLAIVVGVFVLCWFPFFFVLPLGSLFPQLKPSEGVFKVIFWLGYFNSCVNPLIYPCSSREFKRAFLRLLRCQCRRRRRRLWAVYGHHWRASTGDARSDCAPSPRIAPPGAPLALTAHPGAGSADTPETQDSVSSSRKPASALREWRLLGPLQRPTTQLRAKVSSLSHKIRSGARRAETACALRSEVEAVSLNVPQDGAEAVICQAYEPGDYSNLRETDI
T2 sequence (P43140 whole entry): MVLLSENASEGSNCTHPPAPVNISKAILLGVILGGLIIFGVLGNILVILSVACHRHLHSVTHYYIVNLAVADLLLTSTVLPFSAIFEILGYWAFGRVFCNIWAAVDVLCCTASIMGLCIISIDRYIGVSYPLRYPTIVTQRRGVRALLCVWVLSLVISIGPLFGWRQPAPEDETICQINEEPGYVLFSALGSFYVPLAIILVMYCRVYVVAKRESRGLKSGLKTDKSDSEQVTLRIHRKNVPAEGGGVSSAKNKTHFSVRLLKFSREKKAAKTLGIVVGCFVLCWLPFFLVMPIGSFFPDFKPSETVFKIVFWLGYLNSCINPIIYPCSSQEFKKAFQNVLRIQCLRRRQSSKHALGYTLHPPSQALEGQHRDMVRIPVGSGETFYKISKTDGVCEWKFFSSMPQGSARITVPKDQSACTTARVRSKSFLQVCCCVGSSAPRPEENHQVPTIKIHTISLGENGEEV

[3] = species on record: Sus scrofa; assay: Calcium antagonistic activity was evaluated from the inhibition of CaCl2-induced contraction of depolarized pig coronary artery; format: functional
[4] = species on record: Rattus norvegicus; assay: Calcium antagonistic activity was evaluated by in vitro inhibition of [3H]nitrendipine binding on rat cerebral cortex; format: functional
[5] = target: T2, Adrenergic receptor alpha-1; assay: Alpha-1-adrenolytic activity was assessed in vitro from the ability to inhibit norepinephrine-induced contraction of rat aorta preparation
[6] = Rattus norvegicus, Cerebral cortex, 90 min

Structure (SMILES) | IC50 [1] | IC50 [2] | IC50 ([3]; Sus scrofa, Coronary artery) | IC50 [4, 6] | IC50 [5] | IC50 [3] | IC50 [4]
CO/C(O)=C1\C(C)=NC(C)=C(C(=O)OCCN(C)C(c2ccccc2)C2CCCCC2)C1c1cccc([N+](=O)[O-])c1.Cl (centres undefined) | 16000 nM | 75000 nM | > 10000 nM | 3.8 nM | > 0.0001 M |  | 
CO/C(O)=C1\C(C)=NC(C)=C(C(=O)OCCN2CCC(n3c(O)nc4ccccc43)CC2)C1c1cccc([N+](=O)[O-])c1 (centres undefined) | 1600 nM | 41 nM | 1000 nM | 0.6 nM | 0.00001 M |  | 
CO/C(O)=C1\C(C)=NC(C)=C(C(=O)OCCN(C)CC2COc3ccccc3O2)C1c1cccc([N+](=O)[O-])c1.Cl (centres undefined) | 480 nM | 500 nM | 4.5 nM | 0.1 nM | 0.00004 M |  | 
COC(=O)C1=C(C)NC(C)=C(C(=O)OCCN(C)C[C@H]2COc3ccccc3O2)[C@@H]1c1cccc([N+](=O)[O-])c1.Cl (stereo in doubt; 6a) | 4000 nM | 2400 nM |  |  | 0.00001 M | 1.5 nM | 0.018 nM
COC(=O)C1=C(C)NC(C)=C(C(=O)OCCN(C)C[C@H]2COc3ccccc3O2)[C@@H]1c1cccc([N+](=O)[O-])c1.Cl (stereo in doubt; 6b) | 140 nM | 2300 nM |  |  | > 0.00003 M | 10 nM | 2.8 nM
CO/C(O)=C1\C(C)=NC(C)=C(C(=O)OC(C)CN(C)CC2COc3ccccc3O2)C1c1cccc([N+](=O)[O-])c1.Cl (centres undefined) | 470 nM | 1000 nM | 3.8 nM | 0.05 nM | >> 0.0001 M |  | 
CO/C(O)=C1\C(C)=NC(C)=C(C(=O)OCCN(C)CC2COc3ccccc3O2)C1c1ccccc1[N+](=O)[O-] (centres undefined) | 270 nM | 300 nM | 4 nM | 0.07 nM | > 0.00001 M |  | 
CO/C(O)=C1\C(C)=NC(C)=C(C(=O)OCCN(C)C(C)COc2ccccc2)C1c1cccc([N+](=O)[O-])c1.Cl (centres undefined) | 480 nM | 380 nM | 13 nM | 0.073 nM | 0.00007 M |  | 
CC1=NC(C)=C(C(=O)OC(C)CN(C)CC2COc3ccccc3O2)C(c2cccc([N+](=O)[O-])c2)/C1=C(\O)OC(C)C.Cl (centres undefined) |  | 3900 nM | 150 nM |  | >> 0.00003 M |  | 3.4 nM

Source: ChEMBL document CHEMBL1124620, “New 1,4-dihydropyridine derivatives combining calcium antagonism and alpha-adrenolytic properties” (J Med Chem, 1989)
